Data from patent US11629144B2, “Crystal form of monomethanesulfonate of deuterated 3-(4,5-substituted aminopyrimidine)phenyl compound and preparation method therefor” (NANJING CHUANGTE PHARMACEUTICAL TECHNOLOGY CO., LTD., priority 2018, dated 2023).
“Also recorded” adds a separate entry of the source.

Legend:
Format in all cases: physicochemical
[1] = Crystal influence factor test (high temperature, high humidity, illumination, 15 days); conditions: high-humidity and illumination conditions for 15 days
Excerpt: 2. Crystal Influence Factor Test

[2] = Stability differential scanning calorimetry (DSC) test; conditions: rate of temperature rise 10.00° C./min
Protocol: 1. Stability Differential Scanning Calorimetry (DSC) Test
Instrument: NETZSCH DSC 204 type differential thermal analyzer
Rate of temperature rise: 10.00° C./min

Accelerated lofting test = experiment: Accelerated lofting test; parameters: Maximum individual impurity / Loss on drying: unit not given here; conditions: 40±2° C., RH 75%±5%; for Loss on drying: limit ≤1.0; for Maximum individual impurity: limit ≤2.50; for Total impurity: limit ≤4.0%; for Methanesulfonic acid (%): limit ≤15.0-15.8%; for Content (%): should not be less than 78.0%
Protocol: 3. Accelerated Lofting Test
A sample of the crystal form B of the monomethanesulfonate of the compound shown in formula I was placed in a petri dish and was sampled and tested at 0 hour, 1 month, 2 months, 3 months, and 6 months respectively at a temperature of 40±2° C. and a relative humidity of 75%±5%, with the results shown in Table 1: […]

[3] = Long-term lofting experiments; conditions: 25±5° C., RH 60%±10%; for Loss on diying: limit ≤1.0; for Maximum individual impurity: limit ≤2.50; for Total impurity: limit ≤4.0%; for Methanesulfonic acid (%): limit ≤15.0-15.8%; for Content (%): should not be less than 78.0%
Protocol: 4. Long-Term Lofting Experiments
A sample of the crystal form B of the monomethanesulfonate of the compound shown in formula I was placed in a petri dish under the conditions of the temperature being 25±5° C. and the relative humidity being 60%±10% and was sampled and tested at 0 hour, 3 months, and 6 months respectively, with the results shown in Table 2: […]

With `[2H]C([2H])([2H])N(C)CCN(C)c1cc(OC)c(Nc2nccc(-c3cn4c5c(cccc35)CCC4)n2)cc1NC(=O)C=C` [crystal form A] the “Crystal transformation (X-ray diffraction pattern)” value [1] was “can be converted into the crystal form B of the monomethanesulfonate under the high-temperature or high-humidity condition; also recorded: converted to the crystal form B of the monomethanesulfonate at high temperature and high humidity” and the “DSC peak (stability of heat exchange range)” value [2] was “a single peak value is observed”.

For `[2H]C([2H])([2H])N(C)CCN(C)c1cc(OC)c(Nc2nccc(-c3cn4c5c(cccc35)CCC4)n2)cc1NC(=O)C=C` [crystal form B], the Loss on drying (Accelerated lofting test; 0 month) was 0.08, the Maximum individual impurity (Accelerated lofting test; 0 month) was 1.62 and the Total impurity (Accelerated lofting test; 0 month) was 2.55%. The “Methanesulfonic acid (%)” value (Accelerated lofting test; 0 month) was 15.5%, the “Content (%)” value (Accelerated lofting test; 0 month) was 80.5% and the Loss on drying (Accelerated lofting test; 1 month) was 0.03. For the same molecule, the Maximum individual impurity (Accelerated lofting test; 1 month) was 1.87, the Total impurity (Accelerated lofting test; 1 month) was 3.12% and the “Methanesulfonic acid (%)” value (Accelerated lofting test; 1 month) was 15.2%. For the same molecule, the “Content (%)” value (Accelerated lofting test; 1 month) was 82.2%, the Loss on drying (Accelerated lofting test; 2 months) was 0.03 and the Maximum individual impurity (Accelerated lofting test; 2 months) was 1.42. For the same molecule, the Total impurity (Accelerated lofting test; 2 months) was 2.72%, the “Methanesulfonic acid (%)” value (Accelerated lofting test; 2 months) was 15.4% and the “Content (%)” value (Accelerated lofting test; 2 months) was 82.3%. It also gave a Loss on drying (Accelerated lofting test; 3 months) of 0.03, a Maximum individual impurity (Accelerated lofting test; 3 months) of 1.62 and a Total impurity (Accelerated lofting test; 3 months) of 2.72%. For the same molecule, the “Methanesulfonic acid (%)” value (Accelerated lofting test; 3 months) was 15.4%, the “Content (%)” value (Accelerated lofting test; 3 months) was 79.5% and the “Crystal form by X-ray powder diffraction pattern compared with before the experiments” value (Accelerated lofting test; 6 months) was “the crystal form was not changed”. The Loss on drying (Accelerated lofting test; 6 months) was 0.14, the Maximum individual impurity (Accelerated lofting test; 6 months) was 1.61 and the Total impurity (Accelerated lofting test; 6 months) was 2.74%. For the same molecule, the “Methanesulfonic acid (%)” value (Accelerated lofting test; 6 months) was 15.4%, the “Content (%)” value (Accelerated lofting test; 6 months) was 80.8% and the “Change of all investigation items” value (Accelerated lofting test; up to 6 months) was “all investigation items have no obvious change”. The Loss on diying ([3]; 0 month) was 0.08, the Maximum individual impurity ([3]; 0 month) was 1.62 and the Total impurity ([3]; 0 month) was 2.55%. The “Methanesulfonic acid (%)” value ([3]; 0 month) was 15.5%, the “Content (%)” value ([3]; 0 month) was 80.5% and the Loss on diying ([3]; 3 months) was 0.08. The Maximum individual impurity ([3]; 3 months) was 1.65, the Total impurity ([3]; 3 months) was 2.78% and the “Methanesulfonic acid (%)” value ([3]; 3 months) was 15.4%. The “Content (%)” value ([3]; 3 months) was 80.0%, the “Crystal form by X-ray powder diffraction pattern compared with before the experiments” value ([3]; 6 months) was “the crystal form was not changed” and the Loss on diying ([3]; 6 months) was 0.6. The Maximum individual impurity ([3]; 6 months) was 1.48, the Total impurity ([3]; 6 months) was 2.50% and the “Methanesulfonic acid (%)” value ([3]; 6 months) was 15.4%. For the same molecule, the “Content (%)” value ([3]; 6 months) was 82.3% and the “Change of all investigation items” value ([3]; up to 6 months) was “all investigation items have no obvious change”.
